From paper PMC2903443 (Journal of medicinal chemistry, 2010)
Like-named read-outs stand apart in the source and are kept apart here.

Legend:
[1] = target: T1, mtIMPDH (Mycobacterium tuberculosis, UniProt P9WKI7); assay: biochemical
[2] = system: human-type 1 IMPDH; conditions: cited from earlier work
[3] = system: human-type 2 IMPDH; conditions: cited from earlier work
[4] = target: T1, mtIMPDH; assay: biochemical; format: biochemical
[5] = target: hIMPDH1 (Homo sapiens, UniProt P20839); assay: IMPDH inhibition assay; format: biochemical; conditions: hIMPDHs, isoform not specified; relative to compound 6
Chain of hIMPDH1 (P20839 whole entry, canonical isoform): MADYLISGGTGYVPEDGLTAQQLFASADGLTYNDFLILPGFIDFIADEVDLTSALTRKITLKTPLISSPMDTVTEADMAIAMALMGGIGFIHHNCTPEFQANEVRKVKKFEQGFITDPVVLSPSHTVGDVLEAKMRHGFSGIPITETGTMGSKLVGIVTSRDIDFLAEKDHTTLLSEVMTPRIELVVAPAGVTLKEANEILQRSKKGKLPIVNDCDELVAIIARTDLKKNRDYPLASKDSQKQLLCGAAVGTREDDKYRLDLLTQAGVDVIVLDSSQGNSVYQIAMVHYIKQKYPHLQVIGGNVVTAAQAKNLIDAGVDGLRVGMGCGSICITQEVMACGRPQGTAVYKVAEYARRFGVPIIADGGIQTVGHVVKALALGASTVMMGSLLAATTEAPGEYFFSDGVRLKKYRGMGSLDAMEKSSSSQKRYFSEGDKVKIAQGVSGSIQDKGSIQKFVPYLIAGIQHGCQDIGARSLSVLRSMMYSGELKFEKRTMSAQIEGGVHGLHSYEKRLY

[6] = target: T1, mtIMPDH; format: biochemical

T1 sequence (P9WKI7 whole entry, looked up): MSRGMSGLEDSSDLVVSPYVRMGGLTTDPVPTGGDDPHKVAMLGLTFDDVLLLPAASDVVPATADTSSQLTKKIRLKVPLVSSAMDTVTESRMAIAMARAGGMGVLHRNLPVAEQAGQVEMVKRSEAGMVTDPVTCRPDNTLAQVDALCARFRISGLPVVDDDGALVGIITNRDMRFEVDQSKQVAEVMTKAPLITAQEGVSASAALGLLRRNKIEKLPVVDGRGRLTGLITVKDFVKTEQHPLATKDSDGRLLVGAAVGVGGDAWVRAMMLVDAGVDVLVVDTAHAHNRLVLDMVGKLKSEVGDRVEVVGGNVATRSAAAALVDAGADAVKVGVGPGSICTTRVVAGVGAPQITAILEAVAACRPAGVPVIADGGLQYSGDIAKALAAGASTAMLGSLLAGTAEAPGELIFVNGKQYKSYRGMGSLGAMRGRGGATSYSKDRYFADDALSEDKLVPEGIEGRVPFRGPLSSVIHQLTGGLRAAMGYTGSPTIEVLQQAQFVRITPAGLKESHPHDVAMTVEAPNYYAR

SMILES: NC(=O)c1ccc[n+]([C@@H]2O[C@H](COP(=O)([O-])OP(=O)(O)OC[C@H]3O[C@@H](n4cnc5c(N)ncnc54)[C@H](O)[C@@H]3O)[C@@H](O)[C@H]2O)c1 [NAD, nicotinamide adenine dinucleotide]
- Ki [1]: 5000 ± 600 µM
- Km ([2]; read-out: KM (NAD), ref [28]): 70 ± 10 µM
- Ki ([2]; read-out: Ki (NAD), ref [28]): 2000 ± 600 µM
- Km ([3]; read-out: KM (NAD), ref [27]): 6 ± 1 µM
- Ki ([3]; read-out: Ki (NAD), ref [27]): 590 ± 20 µM

SMILES: COc1c(C)c2c(c(O)c1CCOP(=O)(O)CP(=O)(O)OC[C@H]1O[C@@H](n3cnc4c(N)nc(-c5ccccc5)nc43)[C@H](O)[C@@H]1O)C(=O)OC2 [Compound 3b]
- Ki [4]: > 100 µM

SMILES: COc1c(C)c2c(c(O)c1CCNS(=O)(=O)CS(=O)(=O)NC[C@H]1O[C@@H](n3cnc4c(N)nc(-c5ccccc5)nc43)[C@H](O)[C@@H]1O)C(=O)OC2 [Compound 5b]
- Ki [4]: > 100 µM

SMILES: COc1c(C)c2c(c(O)c1C/C=C(\C)CCC(=O)O)C(=O)OC2 [Compound 1, Mycophenolic acid]
- Hill-slope ([4]; fit of Ki^app against mtIMPDH): 1.5
- Ki^app value against mtIMPDH with detergent ([4]; reaction buffer containing 0.1% Trition X-100, compared with buffer without): not affected

SMILES: C#Cc1nc(N)c2ncn([C@@H]3O[C@H](CNS(=O)(=O)CS(=O)(=O)NCCc4c(O)c5c(c(C)c4OC)COC5=O)[C@@H](O)[C@H]3O)c2n1 [Compound 5c]
- Ki [4]: > 100 µM

SMILES: COc1c(C)c2c(c(O)c1C/C=C(\C)COP(=O)(O)CP(=O)(O)OC[C@H]1O[C@@H](n3cnc4c(N)ncnc43)[C@H](O)[C@@H]1O)C(=O)OC2 [Compound 4]
- Ki [4]: > 100 µM

SMILES: CCc1nc(N)c2ncn([C@@H]3O[C@H](CNS(=O)(=O)CS(=O)(=O)NCCc4c(O)c5c(c(C)c4OC)COC5=O)[C@@H](O)[C@H]3O)c2n1 [Compound 5d]
- Ki [4]: > 100 µM

SMILES: COc1c(C)c2c(c(O)c1CCNCc1cn(C[C@H]3O[C@@H](n4cnc5c(N)ncnc54)[C@H](O)[C@@H]3O)nn1)C(=O)OC2 [Compound 6, 6-(2-(((1-(5′-Deoxy-adenosin-5′-yl)-1H-1,2,3-triazol-4-yl)methyl)amino)ethyl)-7-hydroxy-5-methoxy-4-methylisobenzofuran-1(3H)-one]
- Ki [4]: > 100 µM

SMILES: COc1c(C)c2c(c(O)c1CCn1cc(COC[C@H]3O[C@@H](n4cnc5c(N)ncnc54)[C@H](O)[C@@H]3O)nn1)C(=O)OC2 [Compound 8, 6-(2-(4-(Adenosin-5′-yl)methyl-1H-1,2,3-triazol-1-yl)ethyl)-7-hydroxy-5-methoxy-4-methylisobenzofuran-1(3H)-one]
- fold more potent than compound 6 [5]: 10 fold
- Ki [4]: > 100 µM

SMILES: COc1c(C)c2c(c(O)c1C/C=C(\C)Cn1cc(COC[C@H]3O[C@@H](n4cnc5c(N)ncnc54)[C@H](O)[C@@H]3O)nn1)C(=O)OC2 [Compound 9, 6-((E)-4-(4-(Adenosin-5′-yl)methyl-1H-1,2,3-triazol-1-yl)-3-methylbut-2-en-1-yl)-7-hydroxy-5-methoxy-4-methylisobenzofuran-1(3H)-one]
- activity against mtIMPDH (in words) [4]: significant inhibition
- uncompetitive Kiu vs. IMP ([6]; IMP varied 1.4 μM to 1 mM, NAD fixed 0.5 mM, mtIMPDH […]): 2.2 ± 0.1 µM
- uncompetitive Kiu vs. NAD ([6]; NAD varied 94 μM to 3 mM, IMP fixed 100 μM, mtIMPDH […]): 1.5 ± 0.1 µM
- mode of inhibition ([6]; with respect to both NAD and IMP): uncompetitive
